Source: US11066414B2, “Cot modulators and methods of use thereof” (Gilead Sciences, Inc., priority 2015, dated 2021)
Like-named read-outs stand apart in the source and are kept apart here.

System: TNFα
Experiment: Cot Monocyte TNFα Cell Based Assay
[1] = Homo sapiens, Monocyte, read-out: EC50 TNF, LPS-stimulated human monocytes, TNFα
[2] = Homo sapiens, Monocyte, read-out: EC50 TNF, LPS-stimulated human monocytes, TNFα TR-FRET

Procedure: The cell suspension was then plated at a density of 5,000 cells/well onto black 384 well Greiner clear bottom plates. Plates were pre-spotted with test compounds and serially diluted in DMSO where 200 nL/well were delivered using the Echo 550 acoustic liquid dispenser (Labcyte®) for a final DMSO concentration of 0.5%. Plated cells were treated with compound for 1 hour at 37° C. Cells were then stimulated with 50 pg/ml of LPS (Sigma) excluding outside columns of plate used for unstimulated cell control wells. Cells were incubated for an additional 4 hours at 37° C. Cells were then spun out of the media and 5 μl of sample were taken and analyzed for total TNFα content using the TR-FRET Human TNFα detection system (CisBio). This system utilizes two labeled antibodies (cryptate and XL665) that bind to two different epitopes of the TNFα molecule and produce FRET signal proportional to the concentration of TNFα in the sample. […] Plates were covered with clear seals and incubated at room temp overnight. […] Percent of control was calculated as follows: % Control=100×(RatioSample−Ratio0% Stimulation)/(Ratio100% Stimulation−Ratio0% Stimulation) where unstimulated cells (0% stimulation) were the negative control and stimulated cells (100% stimulation) were used as the positive control.

Row | SMILES | EC50 [1] [nM] | other results
1 | N#Cc1csc([C@H](Nc2cc(Cl)c3ncc(C#N)c(Nc4ccc(F)c(Cl)c4)c3c2)c2cn(C3COC3)nn2)c1 [Example 339, (R)-8-chloro-4-((3-chloro-4-fluorophenyl)amino)-6-(((4-cyanothiophen-2-yl)(1-(oxetan-3-yl)-1H-1,2,3-triazol-4-yl)methyl)amino)-quinoline-3-carbonitrile] | 1010 | 
2 | Cc1nc(F)ccc1[C@H](Nc1cc(Cl)c2ncc(C#N)c(N[C@H](C)C(C)(C)C)c2c1)c1cn(C2(C(F)(F)F)CC2)nn1 [Example 582, 8-chloro-4-(((R)-3,3-dimethylbutan-2-yl)amino)-6-(((S)-(6-fluoro-2-methylpyridin-3-yl)(1-(1-(trifluoromethyl)cyclopropyl)-1H-1,2,3-triazol-4-yl)methyl)amino)quinoline-3-carbonitrile] | 184 | 
3 | Cn1cnc([C@H](Nc2cc(Cl)c3ncc(C#N)c(Nc4ccc(F)c(Cl)c4)c3c2)c2c[nH]nn2)c1 [Example 266, (S)-8-chloro-4-((3-chloro-4-fluorophenyl)amino)-6-(((1-methyl-1H-imidazol-4-yl)(1H-1,2,3-triazol-4-yl)methyl)amino)-quinoline-3-carbonitrile] | 28800 | 
4 | Cc1nc(F)ccc1[C@H](Nc1cc(C#N)c2ncc(C#N)c(NCC(C)(C)C#N)c2c1)c1cn(C2(C(F)(F)F)CC2)nn1 [Example 615, (S)-4-((2-cyano-2-methylpropyl)amino)-6-(((6-fluoro-2-methylpyridin-3-yl)(1-(1-(trifluoromethyl)cyclopropyl)-1H-1,2,3-triazol-4-yl)methyl)amino)quinoline-3,8-dicarbonitrile] | 588 | 
5 | COc1nccc2c([C@H](Nc3cc(Cl)c4ncc(C#N)c(NCC(C)(C)C(F)(F)F)c4c3)c3cn(C45CC(C4)C5)nn3)cccc12 [Example 928, (S)-6-(((1-(bicyclo[1.1.1]pentan-1-yl)-1H-1,2,3-triazol-4-yl)(1-methoxylsoquinolin-5-yl)methyl)amino)-8-chloro-4-((3,3,3-trifluoro-2,2-dimethylpropyl)amino)quinoline-3-carbonitrile] |  | EC50 (read-out: EC50 TNF, LPS-stimulated human monocytes, TNFα TR-FRET): 99 nM
6 | Cc1ocnc1[C@H](Nc1cc(Cl)c2ncc(C#N)c(Nc3ccc(F)c(Cl)c3)c2c1)c1cn(C2CCN(C(C)(C)C)CC2)nn1 [Example 263, (S)-6-(((1-(1-(tert-butyl)piperidin-4-yl)-1H-1,2,3-triazol-4-yl)(5-methyloxazol-4-yl)methyl)amino)-8-chloro-4-((3-chloro-4-fluorophenyl)amino)quinoline-3-carbonitrile] | 242 | 
7 | CC(C)(C)CNc1c(C#N)cnc2c(Cl)cc(N[C@H](c3cn(C4(C(F)(F)F)CC4)nn3)c3cccc4c(Cl)nccc34)cc12 [Example 916, (S)-8-chloro-6-(((1-chloroisoquinolin-5-yl)(1-(1-(trifluoromethyl)cyclopropyl)-1H-1,2,3-triazol-4-yl)methyl)amino)-4-(neopentylamino)quinoline-3-carbonitrile] |  | EC50 [2]: 269 nM
8 | CC1(n2cc([C@@H](Nc3cc(C#N)c4ncc(C#N)c(NCC(C)(C)C(F)(F)F)c4c3)c3cccc4ncccc34)nn2)CC1 [Example 895, (S)-6-(((1-(1-methylcyclopropyl)-1H-1,2,3-triazol-4-yl)(quinolin-5-yl)methyl)amino)-4-((3,3,3-trifluoro-2,2-dimethylpropyl)amino)quinoline-3,8-dicarbonitrile] |  | EC50 [2]: 41 nM
9 | Cc1ncccc1[C@H](Nc1cc(Cl)c2ncc(C#N)c(N[C@H](C)c3ccccc3)c2c1)c1cn(C2CCN(C(C)(C)C)CC2)nn1 [Example 231] |  | EC50 (read-out: EC50 TNF, LPS-stimulated human monocytes, TNFα): 230 nM
10 | Cc1ncsc1[C@H](Nc1cc(Cl)c2ncc(C#N)c(Nc3ccc(Cl)c(Cl)c3F)c2c1)c1cn(C2COC2)nn1 [Example 217, (R)-8-chloro-4-((3,4-dichloro-2-fluorophenyl)amino)-6-(((4-methylthiazol-5-yl)(1-(oxetan-3-yl)-1H-1,2,3-triazol-4-yl)methyl)amino)quinoline-3-carbonitrile] | 264 | 
